Reference: PubChem BioAssay (NCI)
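Where inhibition never reached the appropriate level, the endpoint shown equals the highest concentration tested. Otherwise, values were interpolated linearly from a five-concentration, 48-hour dose response in 96-well plates. GI50 marks 50% less growth. TGI is the concentration that stops growth completely.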

Experiments:
Assay in all cases: NCI anticancer screen, dose series, 48 h
SNB-75 CNS = test system: SNB-75 CNS
SK-MEL-5 melanoma = test system: SK-MEL-5 melanoma
SK-MEL-2 melanoma = test system: SK-MEL-2 melanoma
A549 NSCLC = test system: A549 NSCLC
SF-295 CNS = test system: SF-295 CNS
HOP-92 NSCLC = test system: HOP-92 NSCLC
M14 melanoma = test system: M14 melanoma
K-562 leukemia = test system: K-562 leukemia
HCT-15 colon = test system: HCT-15 colon
OVCAR-3 ovarian = test system: OVCAR-3 ovarian
OVCAR-8 ovarian = test system: OVCAR-8 ovarian
HL-60(TB) leukemia = test system: HL-60(TB) leukemia
TK-10 renal = test system: TK-10 renal
IGROV1 ovarian = test system: IGROV1 ovarian
MALME-3M melanoma = test system: MALME-3M melanoma
SF-268 CNS = test system: SF-268 CNS
NCI/ADR-RES ovarian = test system: NCI/ADR-RES ovarian
HCC-2998 colon = test system: HCC-2998 colon
HT29 colon = test system: HT29 colon
MDA-MB-231 breast = test system: MDA-MB-231 breast
U251 CNS = test system: U251 CNS
CCRF-CEM leukemia = test system: CCRF-CEM leukemia
UACC-62 melanoma = test system: UACC-62 melanoma
CAKI-1 renal = test system: CAKI-1 renal
SW-620 colon = test system: SW-620 colon
UO-31 renal = test system: UO-31 renal
DU-145 prostate = test system: DU-145 prostate
SK-MEL-28 melanoma = test system: SK-MEL-28 melanoma
ACHN renal = test system: ACHN renal
A498 renal = test system: A498 renal
HS 578T breast = test system: HS 578T breast
OVCAR-5 ovarian = test system: OVCAR-5 ovarian
SNB-19 CNS = test system: SNB-19 CNS
LOX IMVI melanoma = test system: LOX IMVI melanoma
T-47D breast = test system: T-47D breast
NCI-H522 lung = test system: NCI-H522 lung
PC-3 prostate = test system: PC-3 prostate
OVCAR-4 ovarian = test system: OVCAR-4 ovarian
MDA-MB-435 = test system: MDA-MB-435
RXF 393 renal = test system: RXF 393 renal
COLO 205 colon = test system: COLO 205 colon
UACC-257 melanoma = test system: UACC-257 melanoma
KM12 colon = test system: KM12 colon
MOLT-4 leukemia = test system: MOLT-4 leukemia
SN12C renal = test system: SN12C renal
SK-OV-3 ovarian = test system: SK-OV-3 ovarian
SR leukemia = test system: SR leukemia
RPMI-8226 leukemia = test system: RPMI-8226 leukemia
NCI-H460 lung = test system: NCI-H460 lung
NCI-H226 lung = test system: NCI-H226 lung
NCI-H23 lung = test system: NCI-H23 lung
HCT-116 colon = test system: HCT-116 colon
MCF7 breast = test system: MCF7 breast
786-0 renal = test system: 786-0 renal
BT-549 breast = test system: BT-549 breast
HOP-62 NSCLC = test system: HOP-62 NSCLC
SF-539 CNS = test system: SF-539 CNS
EKVX NSCLC = test system: EKVX NSCLC

## COc1cc(C(=O)N2CCN(c3ncccn3)CC2)c(N)cc1OCc1ccccc1
SNB-75 CNS
  GI50: 50.7 µM
  TGI: > 100 µM
SK-MEL-5 melanoma
  GI50: 44.5 µM
  TGI: > 100 µM
SK-MEL-2 melanoma
  GI50: > 100 µM
  TGI: > 100 µM
A549 NSCLC
  GI50: > 100 µM
  TGI: > 100 µM
SF-295 CNS
  GI50: > 100 µM
  TGI: > 100 µM
HOP-92 NSCLC
  GI50: > 100 µM
  TGI: > 100 µM
M14 melanoma
  GI50: > 100 µM
  TGI: > 100 µM
K-562 leukemia
  GI50: > 100 µM
  TGI: > 100 µM
HCT-15 colon
  GI50: > 100 µM
  TGI: > 100 µM
OVCAR-3 ovarian
  GI50: 85.6 µM
  TGI: > 100 µM
OVCAR-8 ovarian
  GI50: > 100 µM
  TGI: > 100 µM
HL-60(TB) leukemia
  GI50: > 100 µM
  TGI: > 100 µM
TK-10 renal
  GI50: > 100 µM
  TGI: > 100 µM
IGROV1 ovarian
  GI50: > 100 µM
  TGI: > 100 µM
MALME-3M melanoma
  GI50: > 100 µM
  TGI: > 100 µM
SF-268 CNS
  GI50: > 100 µM
  TGI: > 100 µM
NCI/ADR-RES ovarian
  GI50: > 100 µM
  TGI: > 100 µM
HCC-2998 colon
  GI50: > 100 µM
  TGI: > 100 µM
HT29 colon
  GI50: > 100 µM
  TGI: > 100 µM
MDA-MB-231 breast
  GI50: > 100 µM
  TGI: > 100 µM
U251 CNS
  GI50: > 100 µM
  TGI: > 100 µM
CCRF-CEM leukemia
  GI50: > 100 µM
  TGI: > 100 µM
UACC-62 melanoma
  GI50: > 100 µM
  TGI: > 100 µM
CAKI-1 renal
  GI50: 11.9 µM
  TGI: > 100 µM
SW-620 colon
  GI50: > 100 µM
  TGI: > 100 µM
UO-31 renal
  GI50: > 100 µM
  TGI: > 100 µM
DU-145 prostate
  GI50: 37.2 µM
  TGI: > 100 µM
SK-MEL-28 melanoma
  GI50: > 100 µM
  TGI: > 100 µM
ACHN renal
  GI50: > 100 µM
  TGI: > 100 µM
A498 renal
  GI50: 54.2 µM
  TGI: > 100 µM
HS 578T breast
  GI50: > 100 µM
  TGI: > 100 µM
OVCAR-5 ovarian
  GI50: 29.6 µM
  TGI: > 100 µM
SNB-19 CNS
  GI50: > 100 µM
  TGI: > 100 µM
LOX IMVI melanoma
  GI50: > 100 µM
  TGI: > 100 µM
T-47D breast
  GI50: > 100 µM
  TGI: > 100 µM
NCI-H522 lung
  GI50: > 100 µM
  TGI: > 100 µM
PC-3 prostate
  GI50: > 100 µM
  TGI: > 100 µM
OVCAR-4 ovarian
  GI50: > 100 µM
  TGI: > 100 µM
MDA-MB-435
  GI50: > 100 µM
  TGI: > 100 µM
RXF 393 renal
  GI50: > 100 µM
  TGI: > 100 µM
COLO 205 colon
  GI50: > 100 µM
  TGI: > 100 µM
UACC-257 melanoma
  GI50: > 100 µM
  TGI: > 100 µM
KM12 colon
  GI50: > 100 µM
  TGI: > 100 µM
MOLT-4 leukemia
  GI50: 81.6 µM
  TGI: > 100 µM
SN12C renal
  GI50: 63.9 µM
  TGI: > 100 µM
SK-OV-3 ovarian
  GI50: > 100 µM
  TGI: > 100 µM
SR leukemia
  GI50: > 100 µM
  TGI: > 100 µM
RPMI-8226 leukemia
  GI50: > 100 µM
  TGI: > 100 µM
NCI-H460 lung
  GI50: > 100 µM
  TGI: > 100 µM
NCI-H226 lung
  GI50: > 100 µM
  TGI: > 100 µM
NCI-H23 lung
  GI50: > 100 µM
  TGI: > 100 µM
HCT-116 colon
  GI50: > 100 µM
  TGI: > 100 µM
MCF7 breast
  GI50: > 100 µM
  TGI: > 100 µM
786-0 renal
  GI50: > 100 µM
  TGI: > 100 µM

## CC1=C(C(=O)Nc2ccc(Cl)c(Cl)c2)C(c2cccc(Oc3ccccc3)c2)NC(=O)N1 (stereo unspecified)
BT-549 breast
  GI50: 4.23 µM
  TGI: 14.3 µM
SNB-75 CNS
  GI50: 15.9 µM
  TGI: > 50 µM
SK-MEL-5 melanoma
  GI50: 8.07 µM
  TGI: 17 µM
SK-MEL-2 melanoma
  GI50: 5.68 µM
  TGI: 17.9 µM
A549 NSCLC
  GI50: 3.94 µM
  TGI: > 50 µM
SF-295 CNS
  GI50: 5.57 µM
  TGI: 16.6 µM
HOP-92 NSCLC
  GI50: 24.6 µM
  TGI: > 50 µM
M14 melanoma
  GI50: 17.8 µM
  TGI: 31.7 µM
K-562 leukemia
  GI50: 18.6 µM
  TGI: > 50 µM
HCT-15 colon
  GI50: 6.61 µM
  TGI: 48.2 µM
HOP-62 NSCLC
  GI50: 14.6 µM
  TGI: 26.5 µM
OVCAR-3 ovarian
  GI50: 7.75 µM
  TGI: 17 µM
OVCAR-8 ovarian
  GI50: 7.67 µM
  TGI: 22 µM
HL-60(TB) leukemia
  GI50: 22.8 µM
  TGI: > 50 µM
TK-10 renal
  GI50: 20.7 µM
  TGI: > 50 µM
SF-539 CNS
  GI50: 6.78 µM
  TGI: 17 µM
IGROV1 ovarian
  GI50: 5.6 µM
  TGI: 32.6 µM
SF-268 CNS
  GI50: 6.65 µM
  TGI: 17.7 µM
MDA-MB-231 breast
  GI50: 6.15 µM
  TGI: 16.3 µM
EKVX NSCLC
  GI50: 5.21 µM
  TGI: 16.3 µM
U251 CNS
  GI50: 5.28 µM
  TGI: 14.7 µM
CCRF-CEM leukemia
  GI50: > 50 µM
  TGI: > 50 µM
UACC-62 melanoma
  GI50: 6.27 µM
  TGI: 14.1 µM
CAKI-1 renal
  GI50: 7.64 µM
  TGI: 20.4 µM
SW-620 colon
  GI50: 12.8 µM
  TGI: 43.8 µM
UO-31 renal
  GI50: 4.74 µM
  TGI: > 50 µM
DU-145 prostate
  GI50: 6.5 µM
  TGI: 33.3 µM
SK-MEL-28 melanoma
  GI50: 11.1 µM
  TGI: 33.2 µM
ACHN renal
  GI50: 6.6 µM
  TGI: 17.3 µM
HS 578T breast
  GI50: 6.72 µM
  TGI: 22.3 µM
OVCAR-5 ovarian
  GI50: 13.4 µM
  TGI: 33 µM
SNB-19 CNS
  GI50: 20.1 µM
  TGI: > 50 µM
LOX IMVI melanoma
  GI50: 4.33 µM
  TGI: 13.8 µM
T-47D breast
  GI50: 22.9 µM
  TGI: > 50 µM
NCI-H522 lung
  GI50: 4.47 µM
  TGI: 26 µM
PC-3 prostate
  GI50: 16.3 µM
  TGI: > 50 µM
OVCAR-4 ovarian
  GI50: 11.2 µM
  TGI: > 50 µM
MDA-MB-435
  GI50: 6.33 µM
  TGI: 16.7 µM
RXF 393 renal
  GI50: 9.61 µM
  TGI: 26.5 µM
COLO 205 colon
  GI50: 12.6 µM
  TGI: 35.7 µM
UACC-257 melanoma
  GI50: 11.9 µM
  TGI: 42.6 µM
KM12 colon
  GI50: 8.72 µM
  TGI: 19.7 µM
MOLT-4 leukemia
  GI50: > 50 µM
  TGI: > 50 µM
SN12C renal
  GI50: 5.28 µM
  TGI: 12.5 µM
SK-OV-3 ovarian
  GI50: 25.5 µM
  TGI: > 50 µM
SR leukemia
  GI50: 28.1 µM
  TGI: > 50 µM
RPMI-8226 leukemia
  GI50: 13.4 µM
  TGI: > 50 µM
NCI-H460 lung
  GI50: 4.94 µM
  TGI: 32.8 µM
NCI-H226 lung
  GI50: 8.36 µM
  TGI: 19.8 µM
786-0 renal
  GI50: 10.2 µM
  TGI: 20.8 µM

## C[C@H]1[C@H](C)CC[C@]2(C(=O)Nc3ccc4ncccc4c3)CC[C@]3(C)C(=CC[C@@H]4[C@@]5(C)CCCNC(C)(C)[C@@H]5CC[C@]43C)[C@H]12
SK-MEL-5 melanoma
  GI50: 1.85 µM
  TGI: 3.32 µM
SK-MEL-2 melanoma
  GI50: 1.84 µM
  TGI: 3.43 µM
M14 melanoma
  GI50: 1.94 µM
  TGI: 3.59 µM
IGROV1 ovarian
  GI50: 1.7 µM
  TGI: 3.37 µM
UACC-62 melanoma
  GI50: 1.74 µM
  TGI: 3.23 µM
SW-620 colon
  GI50: 1.8 µM
  TGI: 3.37 µM
A498 renal
  GI50: 1.56 µM
  TGI: 2.96 µM
NCI-H460 lung
  GI50: 1.94 µM
  TGI: 3.82 µM
HCT-116 colon
  GI50: 1.6 µM
  TGI: 3.11 µM
